# Assay results published in patent publication US20250206751A1, “HETEROCYCLIC COMPOUND FOR INDUCING DEGRADATION OF G12D MUTANT KRAS PROTEIN” (Astellas Pharma Inc., priority 2022, published 2025).
# Tests used:
# [1] = test system: human KRAS G12D mutant-positive PK-59 pancreatic cancer cell line-derived xenograft; test: Anti-tumor activity in PK-59 xenograft mice (Test Example 4); assay type: in vivo; details: 10 mg/kg into tail vein, once a week, twice in total; PK-59 xenograft nude mice
# Protocol: Test Example 4: Evaluation of Anti-Tumor Activity in Human KRAS G12D Mutant -Positive PK-59 Pancreatic Cancer Cell Line-Derived Xenograft Mice
# PK-59 cells (RIKEN BRC, RCB1901) were cultured using a RPMI 1640 medium containing 10% fetal bovine serum in the presence of 5% CO2 at 37° C. The PK-59 cells were collected and suspended in PBS, and after adding an equal amount of Matrigel (from Becton, Dickinson and Company), 4-5-week-old male nude mice (CAnN.Cg-Foxn1^nu/CrlCrlj (nu/nu), from Charles River Laboratories Japan) were subcutaneously inoculated with the cell suspension of 1.0-2.0×10^7 cells/mL in a volume of 100 μL per mouse. About two weeks after the inoculation, the mice were divided into groups so that all the groups had approximately the same tumor volume and body weight, and administration of test compounds was started on the next day. The study was conducted for 5 mice each of a vehicle group and test compound administration groups. The compounds were dissolved in a solvent containing ethanol (from FUJIFILM Wako Pure Chemical Corporation), a 5% glucose solution (from Otsuka Pharmaceutical), 1M hydrochloric acid (from Kanto Chemical Co., Inc.), 50% (2-hydroxypropyl)-β-cyclodextrin (HP-βCD) solution (from ROQUETTE), HCO-40 (from Nikko Chemicals Co., Ltd.) and 1M sodium hydroxide solution (from Kanto Chemical Co., Inc.) at a liquid amount ratio of 4:84.4:1.1:1:9:0.5. The test compounds dissolved in the respective solvent for the test compound administration groups and the solvent for the vehicle group were administered into tail vein. The administration was performed once a week and twice in total. The tumor sizes and the body weights were measured twice a week. The tumor volumes were calculated using the following equation.
# [Tumor volume (mm^3)]=[Long diameter of the tumor (mm)]×[Short diameter of the tumor (mm)]^2×0.5
# The tumor growth inhibition rate (%) by the test compounds were calculated with the tumor volumes of the test compound administration groups on the previous day of the start of the administration taken as 100% inhibition and the tumor volumes of the vehicle groups two weeks after the initial administration taken as 0% inhibition. In addition, when the tumor volume of a test compound administration group was smaller than the tumor volume on the previous day of the start of the administration, the tumor regression rate (%) by the test compound was calculated with the tumor volume on the previous day of the start of the administration taken as 0% regression and with the tumor volume 0 taken as 100% regression.
# [2] = test system: phosphorylation of threonine 202 (Thr202) and tyrosine 204 (Tyr204) of ERK; test: ERK phosphorylation inhibitory effect by Cell ELISA in AsPC-1 (Test Example 2); assay type: cell-based, human; details: Homo sapiens, ASPC1, AsPC-1 cells, cultured overnight with compound; 1 μM trametinib taken as 0%
# How it was run: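 AsPC-1 cells (G12D KRAS) treated overnight with compound (10 points, 10 μM to 0.3 nM final), then glyoxal-fixed and immunostained for phospho-ERK with a fluorescent secondary read at 800 nm. IC50 by Sigmoid-Emax regression, with DMSO as 100% and 1 μM trametinib as 0%.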
IC50 [2] [nM],SMILES,Anti-Tumor Activity Two Weeks After Initial Administration: tumor growth inhibition rate [1] [% inhibition],Anti-Tumor Activity Two Weeks After Initial Administration: tumor regression rate [1] [% regression]
11,"Cc1ncsc1-c1ccc([C@H](CO)NC(=O)[C@@H]2C[C@@H](O)CN2C(=O)[C@H](C(C)C)n2cc(-c3ccc(COc4c(-c5c(C)c(F)cc6[nH]ncc56)c(C5CC5)cc5c(N(C)[C@H]6CCNC6)nc(OC[C@H]6CCCO6)nc45)cc3)nn2)cc1 (atropisomer, axis not shown; (M)) [Example 9, (4R)-1-[(2S)-2-{4-[4-({[(7M) 6-cyclopropyl-7-(6-fluoro-5-methyl-1H-indazol-4-yl)-4-{methyl[(3S)-pyrrolidin-3-yl]amino}-2-{[(2R)-oxolan-2-yl]methoxy}quinazolin-8-yl}oxy}methyl)phenyl]-1H-1,2,3-triazol-1-yl}-3-methylbutanoyl]-4-hydroxy-N-{(1R)-2-hydroxy-1-[4-(4-methyl-1,3-thiazol-5-yl)phenyl]ethyl}-L-prolinamide]",81,–
24,"CO[C@@H](C)COc1cc(N(C)[C@H]2CCNC2)c2cc(C3CC3)c(-c3c(C)c(F)cc4[nH]ncc34)c(OCc3ccc(-c4cn([C@H](C(=O)N5C[C@H](O)C[C@H]5C(=O)N[C@@H](CO)c5ccc(-c6scnc6C)cc5)C(C)C)nn4)cc3)c2n1 (atropisomer, axis not shown; (M)) [Example 11, (4R)-1-[(2S)-2-{4-[4-({[(7M)-6-cyclopropyl-7-(6-fluoro-5-methyl-1H-indazol-4-yl)-2-[(2S)-2-methoxypropoxy]-4-{methyl[(3S)-pyrrolidin-3-yl]amino}quinazolin-8-yl]oxy}methyl)phenyl]-1H-1,2,3-triazol-1-yl}-3-methylbutanoyl]-4-hydroxy-N-{(1R)-2-hydroxy-1-[4-(4-methyl-1,3-thiazol-5-yl)phenyl]ethyl}-L-prolinamide]",–,6
8,"CCn1nccc1-c1ccc([C@H](CO)NC(=O)[C@@H]2C[C@@H](O)CN2C(=O)[C@H](C(C)C)n2cc(-c3ccc(COc4c(-c5c(C)c(F)cc6[nH]ncc56)c(C5CC5)cc5c(N(C)[C@H]6CCNC6)nc(OC[C@H](C)OC)nc45)cc3)nn2)cc1 (atropisomer, axis not shown; (M)) [Example 13]",–,26
8,"CCN(c1nc(OC[C@H](C)OC)nc2c(OCc3ccc(-c4cn([C@H](C(=O)N5C[C@H](O)C[C@H]5C(=O)N[C@@H](CO)c5ccc(-c6scnc6C)cc5)C(C)C)nn4)cc3)c(-c3c(C)c(F)cc4[nH]ncc34)c(C3CC3)cc12)[C@H]1CCNC1 (atropisomer, axis not shown; (M)) [Example 50, (4R)-1-[(2S)-2-(4-{4-[({(7M)-6-cyclopropyl-4-{ethyl[(3S)-pyrrolidin-3-yl]amino}-7-(6-fluoro-5-methyl-1H-indazol-4-yl)-2-[(2S)-2-methoxypropoxy]quinazolin-8-yl}oxy)methyl)phenyl}-1H-1,2,3-triazol-1-yl)-3-methylbutanoyl]-4-hydroxy-N-{(1R)-2-hydroxy-1-[4-(4-methyl-1,3-thiazol-5-yl)phenyl]ethyl}-L-prolinamide]",–,20
9,"CO[C@@H](C)COc1nc(N(C)[C@@H]2CCNC2)c2cc(C3CC3)c(-c3c(C)c(F)cc4[nH]ncc34)c(OCc3ccc(-c4cn([C@H](C(=O)N5C[C@H](O)C[C@H]5C(=O)N[C@@H](CO)c5ccc(-c6scnc6C)cc5)C(C)C)nn4)cc3)c2n1 (atropisomer, axis not shown; (M)) [Example 53]",–,53
